Details of data set [1]: method as in earlier work. The following applies: ref EPI suite (Experimental database or KOWWIN v1.67) and ChemAxon; cited from earlier work.
Data set [2] relates to zebrafish larvae. The following applies: cited from earlier work; for calculated BCFs: individual compounds and mixtures at 5, 10 and 25 μg·L^-1.
Data set [3] concerns Japanese medaka (Oryzias latipes). Particulars: cited from earlier work; for average concentration in fish: Japanese medaka exposed to fluoxetine, day 7.
In data set [4] the test system is adult zebrafish. The following applies: cited from earlier work.
Data set [5] relates to human liver microsomes. Details: method as in PMID 1389950. Particulars: citalopram metabolized by cytochrome P450 isozyme to N-desmethylcitalopram; cited from earlier work.
The subject of data set [6] is zebrafish (Danio rerio) eleutheroembryos. In words: Bioconcentration experiment (OECD 305 based), 48 h exposure. The class given is in vivo. The following applies: pH 7.8; for BCF48h: Cf(48h)/Cw(48h); for BCFk: k1/k2, first-order one-compartment model, 48 h. Here is the method:
Zebrafish eleutheroembryos were cultured from wild-type adult zebrafish bred and maintained in AZTI Zebrafish Facility (REGA ES489010006105) under standard conditions. The OECD 305 technical guidance was used as reference to establish the experimental conditions for growing as well as the nominal concentrations for the contaminants (dissolved oxygen ≥ 60 %, 27°C and pH 7.8 ± 0.2). Exposure solutions were prepared with the composition of fresh river water (ISO 73463 [43]): 220.5 mg of CaCl2, 63 mg of NaHCO3, 5.5 mg of KCl, and 60.1 mg of MgSO4 per liter of distilled water in plastic tanks.
[…]. […] […].
Bioconcentration factor (BCF) was estimated as the ratio between the concentration of the compound in the target organism, at the maximum time of exposure and the mean calculated in the exposure medium (BCF48h). […]
Where Cf is the concentration in fish (ng·g^-1), t is the exposure time (h), k1 is the first-order uptake constant (L·kg^-1·h^-1), Cw is the concentration of the chemical in the exposure media (μg·L^-1), and k2 is the first-order elimination rate constant (h^-1). Assuming a negligible concentration in fish samples at t0 and considering its constant in the exposure medium, the equations can be expressed as: 3 Cfuptake=k1/k2.Cw1−e^−k2t 4 Cfdepuration=Cf,0.e^−k2t
Where Cf,0 denotes the compound concentration in the organism, when the depuration phase starts. Experimental kinetics data were done using the software NONLIN 5.1, which is specific for no linear adjustments (Nashville, TN). BCFs were calculated applying the two procedures, getting BCF48h (Cf (48h) / Cw (48h)) and BCFk (k1/k2) for comparison purposes when steady state is reached.

For data set [7] the following is noted: ref SCIfinder; cited from earlier work.
In data set [8] the test system is zebrafish (Danio rerio) eleutheroembryos. The data set can be described thus: SSRI metabolization in eleutheroembryos exposed to the mixture of parent compounds. Here is the method: (§1) […] The concentration of the target analyte was determined in both eleutheroembryos and exposure medium all throughout the experiment.
(§2) Fish roe samples from lumpfish and zebrafish eleutheroembryos: 10 mg of wet weigh (w/w) fortified with a solution containing all tested pharmaceuticals at 240 ng·g^-1 and paroxetine d6 as IS at 100 ng·g^-1 was a mixture with 500 μL of acetonitrile and sonicated with ultrasonic probe at 40% of amplitude for 60 s to assist the extraction of the selected compounds and the mixture was centrifuged. The residue was discarded, and the supernatant was cleaned using 100 mg of C18, vortexed for 30 s, and centrifuged. Acetonitrile was led to evaporation before derivatization and injection to the GC-MS following the same steps as described above.

Assay in data set [9]: as above
The following applies: zebrafish (Danio rerio), whole eleutheroembryos (larvae), other: waterborne exposure in exposure medium, pH 7.8, metabolite concentration in eleutheroembryos; for concentration at 6 h: t = 6h; for concentration at 24 h: t = 24h; for concentration at 45 h: t = 45h; for concentration at 48 h: t = 48h. The protocol: as §1, §2

In data set [10] the test system is adult male fathead minnows (Phimephales promelas). The following applies: plasma, 3, 11 and 28 ng·L^-1 in water; cited from earlier work.
Where [11] appears, read: parent exposure concentration 80 μg·L^-1, t = 6h.
Setting [12] is: parent exposure concentration 80 μg·L^-1, t = 24h.
The mark [13] stands for this setting: parent exposure concentration 80 μg·L^-1, t = 45h.
The mark [14] stands for this setting: parent exposure concentration 80 μg·L^-1, t = 48h.
Where [15] appears, read: parent exposure concentration 300 μg·L^-1, t = 6h.
Setting [16] is: parent exposure concentration 300 μg·L^-1, t = 24h.
Setting [17] is: parent exposure concentration 300 μg·L^-1, t = 45h.
Setting [18] is: parent exposure concentration 300 μg·L^-1, t = 48h.
Setting [19] is: parent exposure concentration 80 μg·L^-1.
Where [20] appears, read: parent exposure concentration 300 μg·L^-1.

Structures are written as SMILES. Structures can show the parent of a compound that is named as a salt. Where two headings read alike, the source gives them in different places.

For the compound `CNCCC(Oc1ccc(C(F)(F)F)cc1)c1ccccc1` (stereo not shown) [Fluoxetine, Fluoxetine hydrochloride], the Log kow in data set [1] is 4.65. The bioaccumulation in [2] (high concentration exposure 5000 μg·L^-1) is reported as 195; in data set [2] (low and moderate concentrations 10–50 μg·L^-1), “around 30”. Moreover, the “calculated BCFs” value in [2] is 94–170. The “average concentration in fish” value in [3] was 40.8 ± 5.0 ng·g^-1 w.w. For the same compound, in data set [3] (Japanese medaka, nominal fluoxetine concentration 640 ng·L^-1), the “kinetic BCF” value is given as 80. The BCF in [3] (Japanese medaka, pH 7) was 9 L/kg; in [3] (Japanese medaka, pH 8) it was 30 L/kg; in [3] (Japanese medaka, pH 9), 260 L/kg; in data set [4] (exposed to 0.9 and 3.20 μg·L^-1) it was 20 L/kg.
Turning to `CN(C)CCCC1(c2ccc(F)cc2)OCc2cc(C#N)ccc21` (stereo not shown) [Citalopram, citalopram hydrobromide], the Log kow in data set [1] was 3.74.
As to `CNCCCC1(c2ccc(F)cc2)OCc2cc(C#N)ccc21` (stereo not shown) [Desmethylcitalopram, desmethylcitalopram hydrochloride], in [5], the “ratio for the metabolite” value is recorded as 5–10 fold. In addition, the BCF48h is listed as 0.69 in [6] (nominal 80 μg·L^-1) and 0.21 in [6] (nominal 300 μg·L^-1). Besides, the figures for the BCFk in data set [6] (nominal 80 μg·L^-1) and in data set [6] (nominal 300 μg·L^-1) were 0.7 and 0.35, respectively. The pKa in [7] is on record as 10.54. For the same compound, the “ratio metabolite / parent compound in the larvae” value in data set [8] (setting [11]) came to 0.07; in data set [8] (setting [12]) it was 0.06; in [8] (setting [13]) it was 0.15; in data set [8] (setting [14]), 0.54; in data set [8] (setting [15]), 0.47; in data set [8] (setting [16]), 0.78. For the same compound, the results for the “ratio metabolite / parent compound in the larvae” value in data set [8] (setting [17]) and in data set [8] (setting [18]) were 0.15 and 0.26, respectively. Besides, the concentration at 6 h was 8.9 ng/g in data set [9] (setting [19]) and 118 ng/g in [9] (setting [20]). Besides, the concentration at 24 h in [9] (setting [19]) turned out to be 10.1 ng/g; in data set [9] (setting [20]), 297 ng/g. Moreover, the concentration at 45 h in data set [9] (setting [19]) came out at 14.3 ng/g; in data set [9] (setting [20]), 203 ng/g. For the same compound, the concentration at 48 h in data set [9] (setting [19]) was 32.3 ng/g; in data set [9] (setting [20]) it was 123 ng/g. In data set [1], the Log kow is 3.38.
For the compound `CN[C@H]1CC[C@@H](c2ccc(Cl)c(Cl)c2)c2ccccc21` [Sertraline, sertraline hydrochloride], the bioaccumulation values entry in data set [10] was “approximately 80”. The Log kow in data set [1] is given as 5.29. The BCF in [4] (exposed to 0.2 and 0.76 μg·L^-1) was 50 to 70 L/kg.
As to `N[C@H]1CC[C@@H](c2ccc(Cl)c(Cl)c2)c2ccccc21` [Norsertraline, norsertraline hydrochloride], the BCF48h in [6] (nominal 50 μg·L^-1) came out at 26.5. For the same compound, in [6] (nominal 50 μg·L^-1), the BCFk is 38. Also, the “metabolite concentration in eleutheroembryos” value turned out to be 44.4 ng/g in data set [8] (setting [11]); 504.0 ng/g in data set [8] (setting [12]); 751.8 ng/g in data set [8] (setting [13]); 731.3 ng/g in [8] (setting [14]); 141.4 ng/g in data set [8] (setting [15]); 1228.7 ng/g in data set [8] (setting [16]). Further, the results for the “metabolite concentration in eleutheroembryos” value in [8] (setting [17]) and in data set [8] (setting [18]) were 1968.2 ng/g and 2594.7 ng/g, respectively. For the same compound, the “ratio metabolite / parent compound in the larvae” value is 0.17 in [8] (setting [11]); 0.12 in data set [8] (setting [12]); 0.33 in data set [8] (setting [13]); 0.16 in data set [8] (setting [14]); 0.17 in data set [8] (setting [15]); 0.18 in data set [8] (setting [16]). Besides, the “ratio metabolite / parent compound in the larvae” value in data set [8] (setting [17]) turned out to be 0.41; in [8] (setting [18]), 0.47. In addition, the Log kow in [1] is on record as 4.72.
Regarding `NCCC(Oc1ccc(C(F)(F)F)cc1)c1ccccc1` (stereo not shown) [Norfluoxetine, norfluoxetine hydrochloride], the pKa in data set [7] is reported as 9.05. Further, the “average concentration in fish” value in data set [3] is recorded as 64.3 ± 8.7 ng·g^-1 w.w.
For the compound `Fc1ccc([C@@H]2CCNC[C@H]2COc2ccc3c(c2)OCO3)cc1` [Paroxetine, paroxetine hemihydrate], the pKa in [7] is reported as 9.90. The Log kow in data set [1] was 3.95. Further, the “calculated BCFs” value in [2] is listed as 190–290.

Broadly, the pKa is the pH at which an ionisable group is half protonated.

Source of the values: paper PMC8405463, “Development of a method for assessing the accumulation and metabolization of antidepressant drugs in zebrafish (Danio rerio) eleutheroembryos” (Analytical and Bioanalytical Chemistry, 2021).
